What was measured:
Trypanosoma cruzi [1] = assay: (§1) GSK_TCAKS: pIC50 Trypanosoma cruzi Imaging: Amastigotes/Cell. […] Cells were then washed once with PBS before infection. T. cruzi trypomastigotes, collected at days 5 to 8 after infection from LLC-MK2 parasite infected cultures, were allowed to swim out for 4h at 37C from a centrifuged pellet (2,500 rpm/10 min/room temperature). Trypomastigotes were then collected and counted in a CASY Cell Counter. Trypomastigotes, in supplemented DMEM, were added to H9c2 cultures in a multiplicity of infection of 1 and incubated for 18 h. Cells were washed once with PBS before incubation of the infected H9c2 monolayer with trypsin (Life-Technologies) to detach cells from the flask. Cells were counted in a CASY Cell Counter using a 150 um capillary and their density set at 5 * 10^4 cells per mL in supplemented assay DMEM. Infected H9c2 were dispensed into 384-well poly-lysine coated assay plates at 50uL per well using a Multidrop Combi dispenser. After seeding them, the plates were incubated at 37C, 5% CO2 for 72h. Cultures were then fixed and stained by addition of 50 uL of a solution containing 8% formaldehyde and 4 uM DRAQ5 DNA dye (BioStatus, UK) per well. […] Five images were collected per well for reliable statistical analysis. Automated image analysis was performed with a script developed on Acapella High Content Imaging and Analysis Software (PerkinElmer). Output: number of amastigotes per cell as infection level measurement.; format: functional, organism-based, Rattus norvegicus; settings: H9c2, 4 h
Leishmania donovani [2] = assay: (§2) GSK_TCAKS: pIC50 Leishmania donovani Imaging: Amastigotes/Macrophages. Assay plates (384-well) were prepared by adding 250nL of compound to each well. For single shot assay, the final compound concentration was 5 uM. […] Automated image analysis was performed with a script developed on Acapella High Content Imaging and Analysis Software (PerkinElmer). Output: Average number of amastigotes per macrophage cell were reported for each well.; format: functional, organism-based, Homo sapiens; settings: THP-1
Leishmania donovani [3] = assay: as §2, with “THP-1 Host Macrophages.” for “Amastigotes/Macrophages.”, “THP-1” for “Average number of amastigotes per macrophage”, “cell count” for “cell”; format: functional, organism-based, Homo sapiens
[4] = system: Trypanosoma brucei brucei; assay: GSK_TCAKS: pIC50 Trypanosoma brucei viability assay using luminiscence. Assay plates (1536-well) were prepared. T. brucei cultures were harvested and counted in a CASY cell counter. A parasite suspension was prepared at a final concentration of 5 * 10^4 cells/mL in complete HMI9 medium and 6uL was dispensed to all wells containing compounds using a Multidrop Combi dispenser. 6uL of HMI9 media with 0.4% DMSO were dispensed to control columns. Plates were incubated for 24 h at 37C, 5% CO2 then tempered for 10 min at room temperature. ATP content was quantified by adding 4 uL of CellTiter-Glo Reagent (Promega) according to the manufacturer's instructions. Luminescence was measured using a ViewLux.; format: functional, organism-based; settings: Lister 427, CASY
[5] = GSK_TCAKS: pIC50 HepG2 human cell line viability assay using luminiscence. […] Seeding density was checked to ensure that new mono-layers were not more than 50% confluent at the time of harvesting. Cell suspension was added to 500 mL of the same medium at a final density of 1.2 * 10^5 cells/mL. This cell suspension was dispensed (25 uL, 3000 cells per well) into 384-well clear-bottom plates using a Multidrop Combi dispenser. Prior to addition of the cell suspension, the screening compounds (250 nL) were pre-dispensed into the plates with an Echo liquid handler. Plates were incubated for 48 h at 37C, 5% CO2. After incubation, plates equilibrated at room temperature for 30 min before proceeding to develop the luminescent signal. The signal developer, CellTiter-Glo Reagent, was allowed to equilibrate at room temperature for 30 min and added to the plates (25uL per well) using a Multidrop Combi dispenser. Plates were left for 10 min at room temperature for stabilization and then read using a ViewLux.; format: toxicity, cell-based
Leishmania donovani [6] = assay: as §2, with “Infected Macrophages.” for “Amastigotes/Macrophages.”, “Percent” for “Average number”, “infected” for “amastigotes per”, “cells” for “cell”; format: functional, organism-based, Homo sapiens; settings: THP-1
Leishmania donovani [7] = assay: GSK_TCAKS: pIC50 Leishmania donovani viability assay using fluorescence intensity. Assay plates (1536-well) were prepared by adding 30nL per well of compound. For single shot assay, the final compound concentration was 5uM. […] Briefly, eGFP LdBOB axenic amastigotes were harvested, fixed and counted in a CASY cell counter (Roche-Applied Science). A final concentration of 1.5 * 10^5 cells per well were prepared in amastigote media containing 500 U/mL penicillin/streptomycin (Invitrogen) and 6uL was dispensed to each experimental well using a Multidrop Combi dispenser (Thermo Scientific). 6uL of assay media was dispensed to control columns used as reference for 100% compound response. Following incubation for 72 h at 37C, 5% CO2, 2 uL of resazurin was added to each well at a final concentration of 0.5 mM in phosphate buffered saline (PBS) with IGEPAL (Sigma-Aldrich), 0.05% (v/v).; format: functional, organism-based
[8] = molecular target: Sterol 14-alpha demethylase (Trypanosoma cruzi (strain CL Brener), UniProt Q7Z1V1); assay: GSK_TCAKS: pIC50 CYP51 from Trypanosoma cruzi.; format: functional
[9] = system: Trypanosoma brucei brucei; assay: GSK_TCAKS: pIC50 Trypanosoma brucei viability assay using fluorescence intensity. Assay plates (1536-well) were prepared by dispensing 25nL of compound solution per well using an Echo acoustic dispenser (Labcyte).; format: functional, organism-based; settings: Lister 427, 2 h
Trypanosoma cruzi [10] = assay: GSK_TCAKS: pIC50 Trypanosoma cruzi viability assay using beta-GAL activity. This assay was run at single shot at 5uM compound concentration per well. The biological reagents consisted of NIH-3T3 host cells and trypomastigotes parasitic cells; both cell types were set to a 3.3 * 10^5 cells/mL dilution in assay DMEM by means of a CASY cell counter device using a 60um capillary. 6 uL of the mixture were dispensed per well (about 1 * 10^3 host-cells and 1 * 10^3 parasites) with a Multidrop Combi dispenser. […] In all wells, the percentage of DMSO never exceeded 0.5%. Plates incubated for four days at 37C, 5% CO2. The substrate used for the assay fluorescence intensity (FLINT) readout was resorufin-beta-D-galactopiranoside (Sigma-Aldrich) at 5uM per well. It was diluted in PBS supplemented with the soft detergent Igepal (Fluka).; format: functional, organism-based, Mus musculus; settings: Tulahuen, NIH3T3
Trypanosoma cruzi [11] = assay: as §1, with “H2C9” for “Trypanosoma cruzi”, “H9c2 Host Cardiomyocytes.” for “Amastigotes/Cell.”, “Number” for “number”, “H9c2 Host Cardiomyocytes nuclei to determine drug-related cytotoxicity.” for “amastigotes per cell as infection level measurement.”; format: functional, organism-based, Rattus norvegicus; settings: H9c2, 4 h
Trypanosoma cruzi [12] = assay: GSK_TCAKS: pIC50 Trypanosoma cruzi Imaging: Infected Cells. […] Cells were then washed once with PBS before infection. T. cruzi trypomastigotes, collected at days 5 to 8 after infection from LLC-MK2 parasite infected cultures, were allowed to swim out for 4h at 37C from a centrifuged pellet (2,500 rpm/10 min/room temperature). Trypomastigotes were then collected and counted in a CASY Cell Counter. Trypomastigotes, in supplemented DMEM, were added to H9c2 cultures in a multiplicity of infection of 1 and incubated for 18 h. Cells were washed once with PBS before incubation of the infected H9c2 monolayer with trypsin (Life-Technologies) to detach cells from the flask. Cells were counted in a CASY Cell Counter using a 150 um capillary and their density set at 5 * 10^4 cells per mL in supplemented assay DMEM. Infected H9c2 were dispensed into 384-well poly-lysine coated assay plates at 50uL per well using a Multidrop Combi dispenser. After seeding them, the plates were incubated at 37C, 5% CO2 for 72h. Cultures were then fixed and stained by addition of 50 uL of a solution containing 8% formaldehyde and 4 uM DRAQ5 DNA dye (BioStatus, UK) per well. […] Five images were collected per well for reliable statistical analysis. Automated image analysis was performed with a script developed on Acapella High Content Imaging and Analysis Software (PerkinElmer). Output: percentage of infected cells per well as a second infection marker.; format: functional, organism-based, Rattus norvegicus; settings: H9c2, 4 h

Sterol 14-alpha demethylase, sequence (Q7Z1V1 whole entry): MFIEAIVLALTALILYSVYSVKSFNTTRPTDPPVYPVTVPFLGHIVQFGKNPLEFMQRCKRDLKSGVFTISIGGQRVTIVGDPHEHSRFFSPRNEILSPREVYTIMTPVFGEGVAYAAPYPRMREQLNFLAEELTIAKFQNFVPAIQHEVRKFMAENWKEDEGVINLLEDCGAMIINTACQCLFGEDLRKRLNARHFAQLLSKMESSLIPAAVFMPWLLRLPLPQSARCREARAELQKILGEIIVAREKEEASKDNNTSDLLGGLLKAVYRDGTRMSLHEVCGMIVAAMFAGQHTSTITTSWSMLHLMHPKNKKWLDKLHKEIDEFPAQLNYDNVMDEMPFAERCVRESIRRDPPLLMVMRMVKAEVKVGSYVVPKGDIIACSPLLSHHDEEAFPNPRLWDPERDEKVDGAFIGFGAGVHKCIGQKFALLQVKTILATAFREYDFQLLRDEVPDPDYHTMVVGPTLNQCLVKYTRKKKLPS

| SMILES | IC50 (Trypanosoma cruzi [1]) [µM] | IC50 (Leishmania donovani [2]) [nM] | IC50 (Leishmania donovani [3]) [µM] | IC50 [4] [nM] | IC50 at 48 h [5] [µM] | IC50 (Leishmania donovani [6]) [µM] | IC50 (Leishmania donovani [7]) [µM] | IC50 [8] [µM] | IC50 [9] [nM] | IC50 (Trypanosoma cruzi [10]) [nM] | IC50 (Trypanosoma cruzi [11]) [nM] | IC50 (Trypanosoma cruzi [12]) [µM] |
| --- | --- | --- | --- | --- | --- | --- | --- | --- | --- | --- | --- | --- |
| CCOc1ccc(Nc2ccc(S(=O)(=O)N3CCN(C)CC3)cc2[N+](=O)[O-])cc1OCC | 3.16 | 5010 | 12.6 | 31600 | > 100 | 7.94 | 0.794 | 31.6 | 6310 | 7940 | > 50100 | > 50.1 |
| Cc1cc(C)n(-c2nc(NC(C)C)nc(NC(C)(C)C)n2)n1 | 0.501 | 3980 | 6.31 | 12600 | > 100 | 5.01 | 3.16 | > 100 | 20000 | 2240 | 200 | 1.58 |
| Cc1cc(NC(=O)c2ccc([N+](=O)[O-])s2)ccc1Br | 0.251 | 1580 | 15.8 | 5010 | 39.8 | 2.51 | 3.16 | 10 | 316 | 251 | 2510 | 0.398 |
| CS(=O)(=O)c1ccccc1C(=O)N(Cc1ccccc1)c1ccccc1 | 39.8 | 15800 | > 50.1 | 631 | > 100 | > 50.1 | 15.8 | 20 | 398 | 50100 | > 50100 | > 50.1 |
| Cc1ccc(Nc2nc(N)nc(CNC(c3nc4ccccc4[nH]3)C(C)C)n2)cc1 (centres undefined) | 5.01 | 1260 | 25.1 | 5010 | > 100 | 2 | 3.98 | 50.1 | 7940 | 1000 | > 50100 | 7.94 |
| O=C(Nc1ccc(S(=O)(=O)N2CCCC2)cc1)c1ccc([N+](=O)[O-])s1 | 0.2 | 1000 | > 50.1 | 200 | 6.31 | 1.58 | 7.94 | > 100 | 158 | 200 | 1580 | 0.2 |
| Cc1ccc(-c2csc(NC(=O)C=Cc3ccc(S(=O)(=O)N4CCOCC4)cc3)n2)o1 | 10 | 794 | > 50.1 | 5010 | > 100 | 5.01 | 6.31 | 20 | 3160 | 7940 | 31600 | 10 |
| O=C(Nc1nc2cc(Cl)ccc2o1)c1cccc(Cl)c1 | 0.631 | > 50100 | 6.31 | 794 | > 100 | > 50.1 | 0.398 | > 100 | 794 | 794 | 2510 | 0.794 |
| O=C(NCc1ccc(Cl)cc1)C1CN(C(=O)c2ccc(F)cc2)CCS1 (centres undefined) | 31.6 | > 50100 | > 50.1 | 631 | > 100 | > 50.1 | > 50.1 | 12.6 | 794 | 25100 | > 50100 | 39.8 |
| O=C(Nc1cccc(Cl)c1)Nc1ccc([N+](=O)[O-])cc1Cl | 1.58 | 2000 | 25.1 | 3160 | 31.6 | 3.16 | 6.31 | 5.01 | 2510 | 1260 | 3980 | 2 |
| NCC(Cc1ccccc1)NC(=O)c1cnc(-c2c[nH]c3ncccc23)s1 (centres undefined) | 20 | 12600 | 6.31 | 1000 | 79.4 | 15.8 | > 50.1 | 1 | 398 | 2000 | 631 | > 50.1 |
| Cc1ccc(NC(=O)c2ccnc(N3CCCC3)c2)cc1-c1cc(C(N)=O)ccc1C | 3.16 | 25100 | 31.6 | 251 | > 100 | 39.8 | 25.1 | 3.98 | 100 | 6310 | > 50100 | 10 |
| Cc1nnc(-c2nc(NCc3ccc(Cl)cc3)c3cccnc3c2O)[nH]1 | 1.26 | 501 | 6.31 | 794 | 15.8 | 0.501 | 2 | 15.8 | 631 | 631 | 25100 | 0.794 |
| CC(=O)Nc1ccc(-c2cnc(N)c(-c3nc4ccc(F)cc4[nH]3)c2)cc1 | > 50.1 | 501 | 7.94 | 2000 | 10 | 1 | 6.31 | 63.1 | 631 | 631 | 794 | > 50.1 |
| Cc1ccc(NC(=O)c2ccnc(N3CCCC3)c2)cc1-c1ccsc1C(N)=O | 7.94 | > 50100 | > 50.1 | 63.1 | > 100 | > 50.1 | > 50.1 | 1.26 | 63.1 | 12600 | > 50100 | 12.6 |
| Cc1nc(-c2ccc3c(c2)OCO3)sc1C(=O)NCc1ccc2c(c1)OCO2 | 0.501 | 794 | > 50.1 | > 39800 | > 100 | 0.251 | 2 | 5.01 | 10000 | 3550 | > 50100 | 0.794 |
| Cc1cc(C)n(-c2nc(NC(C)(C)C)nc(N3CCOCC3)n2)n1 | 3.16 | 3980 | > 50.1 | 3980 | 100 | 7.94 | 6.31 | > 100 | 12600 | 5010 | 1260 | 10 |
